Test results reported in patent US20240041889A1, “COMBINATION THERAPY WITH ADENOSINE RECEPTOR ANTAGONISTS” (Teon Therapeutics, Inc., priority 2020, published 2024).

Legend:
[1] = system: tumor-infiltrating immune cells; test: Mechanistic study in a MC38 model, FACS analysis of tumor tissue; format: in vivo, C57BL/6 mice; settings: 6 days after drug treatment
Method: Methods: C57BL/6 inbred female mice, aged at 6-8 week, were purchased from Shanghai Lingchang Biotechnology Co., Ltd. On the day of inoculation (Day 0), MC38 cells were harvested, washed and counted. Cells were re-suspended as single cell solution in PBS at a concentration of 1×10^6 cells/mL at the final step. Immediately, […] (1×10^5) of MC38 cells suspended in 0.1 mL PBS were injected in the right flank of C57BL/6 mice subcutaneously using 27G needles. When palpable, tumors were measured by a caliper and tumor volume (mm^3) were calculated by length×width×height×0.5236. Mice with the tumor size approximately to 80-100 mm^3 were randomly assigned into one of four groups (n=8). Each group received vehicle (BID), A2B antagonist Compound 1 at 3 mg/kg (BID), mouse anti-PD-1 (RMP1-14) at 10 mg/kg (Q3D), or Compound 1 (3 mg/kg)+RMP1-14 (10 mg/kg) intraperitoneally. Tumor tissues were collected 6 days after drug treatment and made single cell suspension for FACS analysis to detect tumor-infiltrating immune cells.

[2] = system: B16F10 tumor; test: Combination with anti-PD-1 in a B16F10 model; format: in vivo, C57BL/6 mice; settings: intraperitoneally for 7 days
Method: Methods: C57BL/6 inbred female mice, aged at 8-9 week, were purchased from Charles River. On the day of inoculation (Day 0), B16F10 cells were harvested, washed and counted. Cells were re-suspended as single cell solution in PBS at a concentration of 5×10^6 cells/mL at the final step. Immediately, five hundred thousand (5×10^5) of B16F10 cells suspended in 0.1 mL PBS were injected in the right flank of C57BL/6 mice subcutaneously using 27G needles. When palpable, tumors were measured by a caliper and tumor volumes (mm^3) were calculated by length×width×height×0.5236. Mice with the tumor size approximate to 100 mm^3 were randomly assigned into one of four groups (n=10). Each group received vehicle (BID), A2B antagonist Compound 1 at 1 mg/kg (BID), mouse anti-PD-1 (RMP1-14) at 10 mg/kg (Q3D), or Compound 1 (1 mg/kg)+RMP1-14 (10 mg/kg) intraperitoneally for 7 days. Tumor size and body weight were determined every 2-3 days.

[3] = system: MC38 tumor model; test: Fibrosis in a MC38 tumor model; format: in vivo
[4] = system: CT26 tumor; test: Combination with anti-PD-1 in a CT26 model; format: in vivo, Balb/C mice; settings: intraperitoneally for 16 days
Method: Methods: Balb/C inbred female mice, aged at 8-9 week, were purchased from Charles River. On the day of inoculation (Day 0), CT26 cells were harvested, washed and counted. Cells were re-suspended as single cell solution in PBS at a concentration of 5×10^6 cells/mL at the final step. Immediately, five hundred thousand (5×10^5) of CT26 cells suspended in 0.1 mL PBS were injected in the right flank of Balb/C mice subcutaneously using 27G needles. When palpable, tumors were measured by a caliper and tumor volume (mm^3) were calculated by length×width×height×0.5236. Mice with the tumor size approximate to 100 mm^3 were randomly assigned into one of four groups (n=10). Each group received vehicle (BID), A2B antagonist Compound 1 at 3 mg/kg (BID), mouse anti-PD-1 (RMP1-14) at 5 mg/kg (Q2D), or Compound 1 (3 mg/kg)+RMP1-14 (5 mg/kg) intraperitoneally for 16 days. Tumor size and body weight were determined every 2-3 days.

## CCCn1c(=O)c2[nH]c(-c3cnn(Cc4cccc(C(F)(F)F)c4)c3)nc2n(CC)c1=O [Compound 1, 8-(1-(3-(Trifluoromethyl)benzyl)-1H-pyrazol-4-yl)-3-ethyl-1-propyl-1H-purine-2,6(3H,7H)-dione]
[1]; Compound 1 3 mg/kg BID i.p.
  increase of the amount of dendritic cells (DCs): 34%
  reduction of the amount of myeloid-derived suppressor cells (MDSCs): 41%
  reduction of the amount of regulatory T cells (Tregs): 28%
[1]; Compound 1 3 mg/kg BID, RMP1-14 10 mg/kg Q3D, alone or combined, i.p.
  increase of the amount of CD8+ T cells: 58%
[1]; Compound 1 3 mg/kg BID, RMP1-14 10 mg/kg Q3D, i.p.
  increase of the amount of CD4+ T cells: 84%
[2]; B16F10 model
  effect on mouse body weight: no effect
[2]; Compound 1 1 mg/kg BID, RMP1-14 10 mg/kg Q3D, alone or combined
  maximal B16F10 tumor growth inhibition (TGI): 48.7%
[3]
  fibrosis: reduces fibrosis
[4]; CT26 model
  effect on mouse body weight: no significant effect
[4]; Compound 1 3 mg/kg BID, RMP1-14 5 mg/kg Q2D, alone or combined
  maximal CT26 tumor growth inhibition (TGI): 47.5%
